For five compounds, TGI results are on record in PubChem BioAssay (NCI).

Among the test systems are 786-0 renal; CAKI-1 renal; MCF7 breast; SF-539 CNS; SK-MEL-2 melanoma; SK-MEL-28 melanoma; SK-OV-3 ovarian; SR leukemia; SW-620 colon; UACC-62 melanoma.
Experiment in all cases: growth of human tumour cells (NCI), 48 h

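These data come from cells grown in 96-well plates and exposed to compound for 48 hours at five concentrations. TGI denotes the concentration required for complete inhibition of growth.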

Take `COC(=O)c1sc2c(Cl)c(Cl)sc2c1Cl`: the TGI in the assay on 786-0 renal, in the assay on CAKI-1 renal, in the assay on MCF7 breast, with SF-539 CNS, in the assay on SK-MEL-2 melanoma and with SK-MEL-28 melanoma was above 100 µM each time. Besides, the TGI with SK-OV-3 ovarian, in the assay on SR leukemia, in the assay on SW-620 colon and in the assay on UACC-62 melanoma was above 100 µM throughout.

Take `Clc1ccc(C2=CC(c3ccccc3)N3C(=N[C@H]4CCCC[C@@H]43)N2)cc1` (stereo not given in full): the TGI in the assay on 786-0 renal was 10.9 µM; in the assay on CAKI-1 renal, 26.9 µM; in the assay with MCF7 breast it was 13.2 µM; with SF-539 CNS, 19.6 µM; in the assay on SK-MEL-2 melanoma, 27.2 µM; in the assay with SK-MEL-28 melanoma it was 11 µM. Besides, the TGI with SK-OV-3 ovarian stood at 27.9 µM; in the assay on SR leukemia it was 5.98 µM; with SW-620 colon, 15.4 µM; in the assay with UACC-62 melanoma it was 18.6 µM.

On to `C[N+](C)([O-])C12CC3CC(CC(C3)C1)C2`, for which the TGI with 786-0 renal, in the assay on CAKI-1 renal, with MCF7 breast, with SF-539 CNS, in the assay on SK-MEL-2 melanoma and in the assay on SK-MEL-28 melanoma was above 100 µM throughout. Further, the TGI in the assay on SK-OV-3 ovarian is above 100 µM; in the assay with SR leukemia, above 100 µM; in the assay on SW-620 colon, above 100 µM; in the assay on UACC-62 melanoma it was 47.4 µM.

`CC[P+](c1ccccc1)(N(C)C)N(C)C`: the TGI in the assay on 786-0 renal, with CAKI-1 renal, in the assay on MCF7 breast, with SF-539 CNS, with SK-MEL-2 melanoma and in the assay with SK-MEL-28 melanoma was above 100 µM in each case. The TGI in the assay on SK-OV-3 ovarian, with SR leukemia, in the assay with SW-620 colon and in the assay on UACC-62 melanoma was above 100 µM throughout.

As for `COC1=C(OC)C(=O)C(Cc2c(-c3ccccc3)nc3sc(Cl)cn23)=C(C)C1=O`, the TGI in the assay on 786-0 renal was 41.8 µM; with CAKI-1 renal, 50.3 µM; with MCF7 breast it was 52.4 µM; in the assay on SF-539 CNS, 31.6 µM; in the assay with SK-MEL-2 melanoma, 36.5 µM; in the assay on SK-MEL-28 melanoma it was 27 µM. Moreover, the TGI came out at 37.8 µM with SK-OV-3 ovarian, 72.1 µM with SR leukemia, 50.6 µM in the assay with SW-620 colon and 24.6 µM in the assay with UACC-62 melanoma.
